Paper PMC12040169 (PLOS Biology, 2025)

Assay: in vitro
Settings: human, hela cells, % viability

| SMILES | viability at 28.5 h, 10 µM | viability at 28.5 h, 10 µM (bulk resorufin, single well) |
| --- | --- | --- |
| CC(=O)C1=C(O)C(=O)N(CCCO)C1c1cccc([N+](=O)[O-])c1 (stereo not shown) [CBK263753] | 92.6% |  |
| NNC(=O)CN(CCc1ccccc1)S(=O)(=O)c1ccc(Cl)cc1 [CBK263754] | 86.2% |  |
| CCOC(=O)C1(C)C=C(Nc2cccc(C)c2)C(=O)N1c1ccccc1 (stereo not shown) [CBK263757] | 96.8% |  |
| NS(=O)(=O)c1ccc(N2C(=O)C(O)=C(C(=O)c3ccc(Cl)cc3)C2c2ccc([N+](=O)[O-])cc2)cc1 (stereo not shown) [CBK263758] | 97.2% |  |
| O=C(Nc1cccc2ccccc12)c1ccc(CSCc2ccccc2)cc1 [CBK263759] | 105% |  |
| O=C(O)c1ccc(N2C(=O)C(O)=C(C(=O)c3ccccc3)C2c2cccc([N+](=O)[O-])c2)cc1 (stereo not shown) [CBK263760] | 92.5% |  |
| COc1ccc(C2C(C(C)=O)=C(O)C(=O)N2CCC(=O)O)cc1 (stereo not shown) [CBK263763] | 97.3% |  |
| CCOc1ccc(N(CC(=O)O)S(=O)(=O)c2ccc(SC)cc2)cc1 [CBK263764] | 103% |  |
| COc1ccc(-n2nc3cc(C)c(NC(=O)c4ccc(-c5ccc([N+](=O)[O-])cc5OC)o4)cc3n2)cc1 [CBK263766] | 99.3% |  |
| Cc1ccc(S(=O)(=O)N(CC(=O)O)c2ccc(Cl)cc2)cc1 [CBK263767] | 106% |  |
| CN(C)S(=O)(=O)N1CCC(Cc2ccccc2)CC1 [CBK263768] | 98.2% |  |
| Cc1ccc(C(C)C)c(OCC(=O)Nc2ccc(F)c([N+](=O)[O-])c2)c1 [CBK263771] | 91.7% |  |
| CC(SCc1ccccc1)C(=O)NC(C)c1ccccc1 (stereo not shown) [CBK263772] | 103% |  |
| Cc1cc(C)cc(N(CC(=O)O)S(C)(=O)=O)c1 [CBK263775] | 111% |  |
| O=C(CN(c1ccc(Cl)cc1)S(=O)(=O)c1ccccc1)Nc1ccc2ccccc2c1 [CBK263776] | 112% |  |
| O=C(CN(c1ccccc1)S(=O)(=O)c1ccccc1[N+](=O)[O-])Nc1ccccc1 [CBK263777] | 76.3% |  |
| Cc1ccc(S(=O)(=O)N(CC(=O)O)c2ccc(C)c(C)c2)cc1 [CBK263778] | 89.6% |  |
| O=C(COc1ccc2ccccc2c1)Nc1cc([N+](=O)[O-])ccc1F [CBK263780] | 92.8% |  |
| CC(NC(=O)CN(c1ccc(Cl)c(Cl)c1)S(=O)(=O)c1ccccc1)c1ccccc1 (stereo not shown) [CBK263781] | 92.8% |  |
| O=C(O)CN(c1ccc([N+](=O)[O-])cc1)S(=O)(=O)c1ccccc1 [CBK263782] | 92.7% |  |
| O=C(COc1cc(Cl)c(Cl)cc1Cl)N1CCN(c2ccc([N+](=O)[O-])cc2)CC1 [CBK263783] | 97.1% |  |

| SMILES | viability at 28.5 h, 10 µM | viability at 28.5 h, 10 µM (bulk resorufin, single well) |
| --- | --- | --- |
| Cc1ccc(S(=O)(=O)NCCNc2ccc(Cl)cc2[N+](=O)[O-])cc1 [CBK263784] | 104% |  |
| COc1ccc(NC(=O)c2ccc(CN3CCOCC3)cc2)c(OC)c1 [CBK263790] | 91.4% |  |
| Cc1cc(/C=C(/C#N)c2nc3ccccc3[nH]2)c(C)n1-c1ccc(N2CCOCC2)cc1 [CBK263792] | 94% |  |
| Cc1ccc(N(Cc2ccc(C(=O)N(C)Cc3ccccc3)cc2)S(C)(=O)=O)cc1C [CBK263795] | 81.5% |  |
| CC(=O)C1=C(O)C(=O)N(CCCC(=O)O)C1c1cccc([N+](=O)[O-])c1 (stereo not shown) [CBK263801] | 103% |  |
| O=C(COc1ccc([N+](=O)[O-])cc1)Nc1cccc2nsnc12 [CBK263808] | 94.8% |  |
| COc1ccc(C2=C(Nc3ccc(C(=O)NCc4cccnc4)cc3)c3ccccc3C2=O)cc1 [CBK263809] | 89.1% |  |
| COc1cccc(NC(=O)CSc2ccc(Cl)cc2)c1 [CBK263811] | 85.6% |  |
| COc1cc(/C=N/n2cnnc2)ccc1OS(=O)(=O)c1ccccc1[N+](=O)[O-] [CBK263814] | 89.3% |  |
| Cc1cc(/C=N/NC(=O)C(=O)NCc2ccccn2)c(C)n1-c1cccc(Br)c1 [CBK263815] | 93.2% |  |
| CC(NS(=O)(=O)N(C)C)c1ccccc1 (stereo not shown) [CBK263819] | 96.6% |  |
| O=C(CCN1CCOCC1)Nc1ccc(Cl)cc1 [CBK263820] | 98.8% |  |
| CCN(CC)Cc1c(O)ccc2cc(-c3nc4ccccc4[nH]3)c(=O)oc12 [CBK263824] | 102% |  |
| Cc1cccn2c(=O)c(/C=C3\SC(=S)N(CC4CCCO4)C3=O)c(NCCCn3ccnc3)nc12 (stereo not shown) [CBK263825] | 119% |  |
| CCOC(=O)c1c(-c2ccccc2)oc2ccc(OCC(=O)NN)cc12 [CBK263826] | 91.8% |  |
| CC(=O)Oc1ccc(-c2cccc(C(=O)NCC(=O)O)c2)cc1 [CBK263828] | 86.9% |  |
| CC(=O)Oc1ccc(-c2cccc(C(=O)NCCO)c2)cc1 [CBK263829] | 105% |  |
| Cc1cccn2c(=O)c(/C=C3\SC(=S)N(Cc4ccccc4)C3=O)c(NCCCn3ccnc3)nc12 [CBK263833] | 102% |  |
| COC(=O)c1c(NC(=O)CC2SCC(C(=O)OC)NC2=O)sc2c1CCCC2 (stereo not shown) [CBK263834] | 94.5% |  |
| O=C(c1ccc(S(=O)(=O)N2CCCCCC2)cc1)N1CCC(CN2C(=O)c3cccc4cccc(c34)C2=O)CC1 [CBK263835] | 98.1% |  |
| Cc1cccn2c(=O)c(/C=C3\SC(=S)N(C(C)c4ccccc4)C3=O)c(NCCCn3ccnc3)nc12 (stereo not shown) [CBK263836] | 92.9% |  |

| SMILES | viability at 28.5 h, 10 µM | viability at 28.5 h, 10 µM (bulk resorufin, single well) |
| --- | --- | --- |
| Cc1nnc2nc(-c3cccc(Cl)c3Cl)[nH]n12 [CBK263845] | 94.2% |  |
| O=C1NC(=O)N(c2ccc(F)cc2)C(=O)/C1=C/c1ccccc1OCc1ccc([N+](=O)[O-])cc1 [CBK263846] |  | 93.5% |
| N/C(=N/OC(=O)c1ccc2nsnc2c1)c1ncon1 [CBK263847] | 105% |  |
| CN(C1=NS(=O)(=O)c2ccccc21)c1ccc(OC(=O)C2CC(=O)N(c3ccccc3)C2)cc1 (stereo not shown) [CBK263849] | 87% |  |
| Cc1ccc(CSc2nnc(-c3ccc(NC(=O)/C=C/c4ccccc4)cc3)n2C)cc1 [CBK263850] | 90.4% |  |
| Cc1ccc(C(=O)C(NC(=O)c2ccco2)Nc2cccc3ccccc23)cc1 (stereo not shown) [CBK263856] | 86.3% |  |
| N=C1NS(=O)(=O)NC1c1ccc(Cl)cc1 (stereo not shown) [CBK263858] | 88.4% |  |
| CN1C(=O)C(CC(=O)Nc2ccc(F)cc2)N(CCc2ccccc2)C1=S (stereo not shown) [CBK263861] | 118% |  |
| O=C(O)c1cccc(-c2ccc(/C=N/NC(=O)c3sc4ccccc4c3Cl)o2)c1 [CBK263863] | 91% |  |
| C(=N\n1cnnc1)/c1ccccc1OCc1cccc2ccccc12 [CBK263864] | 94.6% |  |
| CCOC(=O)C1=C(C)NC(=O)NC1c1ccc(-c2ccccc2F)o1 (stereo not shown) [CBK263867] | 95.7% |  |
| O=C(CC1C(=O)N(Cc2ccccc2)C(=S)N1Cc1ccccc1)Nc1ccccc1 (stereo not shown) [CBK263871] | 97.3% |  |
| O=C(O)c1cc(NS(=O)(=O)c2ccc(N3CCCCC3)c([N+](=O)[O-])c2)cc(C(=O)O)c1 [CBK263876] | 101% |  |
| N/C(=N\C(=O)CN1C(=O)C2CCCCC2C1=O)Nc1nc2ccccc2s1 (stereo not shown) [CBK263877] | 92.4% |  |
| COc1ccccc1NCC(=O)n1nc(C)cc1C [CBK263879] | 97.8% |  |
| O=C(O)COC(=O)C1C(c2ccccc2)C(C(=O)O)C1c1ccccc1 (stereo not shown) [CBK263881] | 85.9% |  |
| Cc1cc(/C=C2/NC(=S)NC2=O)c(C)n1-c1ccc(Sc2ccc([N+](=O)[O-])cc2)cc1 [CBK263883] | 109% |  |
| Cc1ccc(NC(=O)CCC(=O)N/N=C/c2ccco2)c(C)c1 [CBK263885] | 96.4% |  |
| O=C1c2ccccc2C(=O)N1CSc1nnc2c3ccccc3n(CCc3ccccc3)c2n1 [CBK263891] | 97.7% |  |
| C=CCn1c2ccccc2c2nnc(SCC(=O)Nc3c(C)n(C)n(-c4ccccc4)c3=O)nc21 [CBK263892] | 87.6% |  |
| COc1ccc(C(=O)Nc2ccc(N3CCOCC3)c(Cl)c2)cc1[N+](=O)[O-] [CBK263894] | 100% |  |

| SMILES | viability at 28.5 h, 10 µM | viability at 28.5 h, 10 µM (bulk resorufin, single well) |
| --- | --- | --- |
| Cc1ccccc1C(=O)Nc1cccc(NC(=S)NC(=O)c2cccs2)c1 [CBK263895] | 93.1% |  |
| O=C(CSc1nc(-c2ccccc2)cc(-c2ccccc2)n1)Nc1cccc([N+](=O)[O-])c1 [CBK263896] | 97.9% |  |
| Cc1ccc2oc(-c3ccc(C)c(NC(=S)NC(=O)c4ccc([N+](=O)[O-])cc4)c3)nc2c1 [CBK263897] | 90.4% |  |
| O=C(COc1ccccc1)Nc1nnc[nH]1 [CBK263898] | 108% |  |
| Cn1c2ccc(Br)cc2c2nnc(SCC(=O)N3c4ccccc4Sc4ccccc43)nc21 [CBK263900] | 88.7% |  |
| O=C(CC(NC(=O)c1ccccc1)c1ccccc1)Nc1cccc2ccccc12 (stereo not shown) [CBK263901] | 98.9% |  |
| CN1C(=O)C(=Cc2ccc(-c3cccc([N+](=O)[O-])c3)o2)C(=O)N(C)C1=S [CBK263903] |  | 95.1% |
| COc1ccc(-c2c(C(F)(F)F)oc3cc(OC(=O)c4cccc(C)c4)ccc3c2=O)cc1OC [CBK263907] | 99.3% |  |
| Cc1cc(C)cc(Oc2coc3c(CN4CCOCC4)c(O)ccc3c2=O)c1 [CBK263908] | 89.7% |  |
| O=C(Cc1ccc(Cl)cc1)NC(=S)Nc1ccccc1[N+](=O)[O-] [CBK263909] | 95.4% |  |
| Cc1cc(C)nc(N/C(=N\C(=O)c2ccccc2)N2CCC(C(N)=O)CC2)n1 [CBK263910] | 99.4% |  |
| CS(=O)(=O)N(CC(=O)N/N=C/c1ccncc1)c1ccccc1Br [CBK263911] | 100% |  |
| Cc1c(NC(=O)COc2ccc([N+](=O)[O-])cc2)cccc1-c1nc2ncccc2o1 [CBK263912] | 105% |  |
| COc1ccc(-c2nnc3[nH]c(=O)n(C)c(=O)c3n2)cc1OC [CBK263914] | 89% |  |
| Cc1c(NC(=O)CSc2nnc3c4ccccc4n(C(C)C)c3n2)c(=O)n(-c2ccccc2)n1C [CBK263916] | 105% |  |
| O=C(O)c1ccccc1Nc1c2ccccc2nc2ccccc12 [CBK263921] | 96% |  |
| Cc1ccc2oc(-c3cc(NC(=S)NC(=O)c4ccc([N+](=O)[O-])cc4)ccc3O)nc2c1 [CBK263923] | 94.3% |  |
| Cc1ccc(OCC(=O)NC(=S)Nc2cccc(-c3nc4ncccc4o3)c2C)cc1 [CBK263925] | 109% |  |
| CCOC(=O)C(CO)NC(=O)c1cncc(Br)c1 (stereo not shown) [CBK263926] | 83.8% |  |
